According to PMC8371461 (Frontiers in Pharmacology, 2021):

Experiments:
[1] = biological target: T1, ABL1(F317I)-nonphosphorylated (Homo sapiens, UniProt P00519, F317I); assay: kinome scan; format: binding; details: 10 µM
T1 construct: purchased DiscoverX (KINOMEscan)

[2] = biological target: T2, ABL1(F317L)-nonphosphorylated (Homo sapiens, UniProt P00519, F317L); assay: kinome scan; format: binding; details: 10 µM
T2 construct: purchased DiscoverX (KINOMEscan)

[3] = biological target: T3, ABL1(H396P)-nonphosphorylated (Homo sapiens, UniProt P00519, H396P); assay: kinome scan; format: binding; details: 10 µM
T3 construct: purchased DiscoverX (KINOMEscan)

[4] = biological target: T4, CSNK1G3 (Homo sapiens, UniProt Q9Y6M4); assay: kinome scan; format: binding
T4 construct: purchased DiscoverX (KINOMEscan)

[5] = biological target: T5, DCAMKL1 (Homo sapiens, UniProt O15075); assay: kinome scan; format: binding; details: 10 µM
T5 construct: purchased DiscoverX (KINOMEscan)

[6] = biological target: T6, EGFR(L747-S752delP753S) (Homo sapiens, UniProt P00533, DEL747-752/P753S); assay: kinome scan; format: binding; details: 10 µM
T6 construct: purchased DiscoverX (KINOMEscan)

[7] = biological target: T7, EPHA3 (Homo sapiens, UniProt P29320); assay: kinome scan; format: binding; details: 10 µM
T7 construct: purchased DiscoverX (KINOMEscan)

[8] = biological target: T8, EPHA5 (Homo sapiens, UniProt P54756); assay: kinome scan; format: binding; details: 10 µM
T8 construct: purchased DiscoverX (KINOMEscan)

[9] = biological target: T9, ERBB2 (Homo sapiens, UniProt P04626); assay: kinome scan; format: binding; details: 10 µM
T9 construct: purchased DiscoverX (KINOMEscan)

[10] = biological target: T10, ERK5 (Homo sapiens, UniProt Q13164); assay: kinome scan; format: binding; details: 10 µM
T10 construct: purchased DiscoverX (KINOMEscan)

[11] = biological target: T11, FGFR3 (Homo sapiens, UniProt P22607); assay: kinome scan; format: binding; details: 10 µM
T11 construct: purchased DiscoverX (KINOMEscan)

[12] = biological target: T12, GRK1 (Homo sapiens, UniProt Q15835); assay: kinome scan; format: binding; details: 10 µM
T12 construct: purchased DiscoverX (KINOMEscan)

[13] = biological target: T13, INSRR (Homo sapiens, UniProt P14616); assay: kinome scan; format: binding; details: 10 µM
T13 construct: purchased DiscoverX (KINOMEscan)

[14] = biological target: T14, JNK2 (Homo sapiens, UniProt P45984); assay: kinome scan; format: binding; details: 10 µM
T14 construct: purchased DiscoverX (KINOMEscan)

[15] = biological target: T15, KIT (Homo sapiens, UniProt P10721); assay: kinome scan; format: binding
T15 construct: purchased DiscoverX (KINOMEscan)

[16] = biological target: T16, LIMK1 (Homo sapiens, UniProt P53667); assay: kinome scan; format: binding; details: 10 µM
T16 construct: purchased DiscoverX (KINOMEscan)

[17] = biological target: T17, MEK3 (Homo sapiens, UniProt P46734); assay: kinome scan; format: binding; details: 10 µM
T17 construct: purchased DiscoverX (KINOMEscan)

[18] = biological target: T18, MET(M1250T) (Homo sapiens, UniProt P08581, M1250T); assay: kinome scan; format: binding; details: 10 µM
T18 construct: purchased DiscoverX (KINOMEscan)

[19] = biological target: T19, NEK9 (Homo sapiens, UniProt Q8TD19); assay: kinome scan; format: binding; details: 10 µM
T19 construct: purchased DiscoverX (KINOMEscan)

[20] = biological target: T20, CDC2L5 (Homo sapiens, UniProt Q14004); assay: kinome scan; format: binding; details: 10 µM
T20 construct: purchased DiscoverX (KINOMEscan)
Experimental: (§1) The kinome scan analysis was performed using the DiscoverX platform (www.discoverx.com). Briefly, T7 kinase-tagged phage strains are grown in parallel in 24-well or 96-well blocks in a BL21-derived E. coli host for 90 min until lysis. Lysates are centrifuged at 6,000 x g and filtered with a 0.2 µm filter to remove cell debris. Streptavidin-coated magnetic beads are treated with biotinylated kinase ligands for 30 min at room temperature to generate the affinity resin. Bound beads are blocked with excess biotin and washed with blocking buffer (SeaBlock (Pierce), 1% BSA, 0.05% Tween 20, and 1 mM DTT) to remove unbound ligand and reduce nonspecific phage binding. […] The final concentration of test compound is 10 µM. Assay plates are incubated at room temperature with shaking for 1 h. Affinity beads are treated four times with washing buffer (1X PBS, 0.05% Tween 20, and 1 mM DTT) to remove unbound phage. […] Q RT PCR is used to measure the amount of phage in each eluate (which is proportional to the amount of kinase bound). Data is presented as the percentage of kinase bound by 10 µM of the ligand compared to the DMSO only as a control.
(§2) Hits are identified by an ultra-sensitive quantitative PCR detecting the specific DNA tag linked to each kinase (Supplementary Figure S2). The drug is used at a concentration of 10 µM and results are expressed as the percentage of signal (kinase PCR detection) with respect to DMSO control conditions. Thirteen hits were identified, with a signal reduction ranging from 0 to 27% (Table 3). Full raw data are presented in Supplementary Table S4. Interactions between 0 and 20% of reduction were considered to be the most significant ones. […] A sub-micromolar affinity (Kd<1 µM) was only seen with two PIKs (PIP4K2C, PI4KB) and GAK (Table 4). Inhibitions curves from these compounds are shown in Supplementary Figure S3.

[21] = biological target: T21, PFCDPK1(P.falciparum) (Plasmodium falciparum, UniProt P62344); assay: kinome scan; format: binding; details: 10 µM
T21 construct: purchased DiscoverX (KINOMEscan)
Experimental: as §1, §2

[22] = biological target: T22, PFPK5(P.falciparum) (Plasmodium falciparum, UniProt P61075); assay: kinome scan; format: binding; details: 10 µM
T22 construct: purchased DiscoverX (KINOMEscan)
Experimental: as §1, §2

[23] = biological target: T23, PRP4 (Homo sapiens, UniProt Q13523); assay: kinome scan; format: binding; details: 10 µM
T23 construct: purchased DiscoverX (KINOMEscan)
Experimental: as §1, §2

[24] = biological target: T24, PLK2 (Homo sapiens, UniProt Q9NYY3); assay: kinome scan; format: binding; details: 10 µM
T24 construct: purchased DiscoverX (KINOMEscan)

[25] = biological target: T25, RET (Homo sapiens, UniProt P07949); assay: kinome scan; format: binding; details: 10 µM
T25 construct: purchased DiscoverX (KINOMEscan)

[26] = biological target: T26, ROCK2 (Homo sapiens, UniProt O75116); assay: kinome scan; format: binding; details: 10 µM
T26 construct: purchased DiscoverX (KINOMEscan)

[27] = biological target: T27, SNARK (Homo sapiens, UniProt Q9H093); assay: kinome scan; format: binding; details: 10 µM
T27 construct: purchased DiscoverX (KINOMEscan)

[28] = biological target: T28, STK16 (Homo sapiens, UniProt O75716); assay: kinome scan; format: binding; details: 10 µM
T28 construct: purchased DiscoverX (KINOMEscan)

[29] = biological target: T29, TRKB (Homo sapiens, UniProt Q16620); assay: kinome scan; format: binding; details: 10 µM
T29 construct: purchased DiscoverX (KINOMEscan)

[30] = biological target: T30, VRK2 (Homo sapiens, UniProt Q86Y07); assay: kinome scan; format: binding; details: 10 µM
T30 construct: purchased DiscoverX (KINOMEscan)

[31] = tested on: Mitochondrial membrane potential; set-up: method as in CHEMBL1614240; details: reported activity, data mining; ref CHEMBL1614240; cited from earlier work

T15 sequence (P10721 26-976): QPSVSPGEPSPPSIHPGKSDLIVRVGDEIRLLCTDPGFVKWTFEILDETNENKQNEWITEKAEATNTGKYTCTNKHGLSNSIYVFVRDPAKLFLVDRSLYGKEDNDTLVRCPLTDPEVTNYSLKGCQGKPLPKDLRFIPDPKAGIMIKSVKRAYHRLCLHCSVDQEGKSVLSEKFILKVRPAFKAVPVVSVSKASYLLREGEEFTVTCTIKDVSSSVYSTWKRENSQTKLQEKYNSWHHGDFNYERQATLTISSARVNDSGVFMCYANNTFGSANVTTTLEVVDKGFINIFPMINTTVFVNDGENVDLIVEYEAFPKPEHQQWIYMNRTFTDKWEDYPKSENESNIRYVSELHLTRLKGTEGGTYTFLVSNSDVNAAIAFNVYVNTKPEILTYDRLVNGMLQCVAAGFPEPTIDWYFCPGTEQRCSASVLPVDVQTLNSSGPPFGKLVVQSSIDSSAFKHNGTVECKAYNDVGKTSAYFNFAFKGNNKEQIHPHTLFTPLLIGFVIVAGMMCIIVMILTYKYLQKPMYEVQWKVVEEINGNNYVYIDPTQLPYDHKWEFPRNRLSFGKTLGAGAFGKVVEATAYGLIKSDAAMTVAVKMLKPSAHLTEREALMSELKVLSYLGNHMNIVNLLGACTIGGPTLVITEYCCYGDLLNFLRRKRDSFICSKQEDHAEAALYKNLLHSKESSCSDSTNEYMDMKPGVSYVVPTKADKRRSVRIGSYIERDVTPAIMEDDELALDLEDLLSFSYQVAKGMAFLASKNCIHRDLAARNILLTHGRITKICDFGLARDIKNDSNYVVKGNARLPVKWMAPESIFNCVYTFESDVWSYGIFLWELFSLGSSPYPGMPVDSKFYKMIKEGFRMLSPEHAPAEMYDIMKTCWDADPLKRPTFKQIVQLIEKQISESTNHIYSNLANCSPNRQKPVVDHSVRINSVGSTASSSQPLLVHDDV
T4 sequence (Q9Y6M4 whole entry): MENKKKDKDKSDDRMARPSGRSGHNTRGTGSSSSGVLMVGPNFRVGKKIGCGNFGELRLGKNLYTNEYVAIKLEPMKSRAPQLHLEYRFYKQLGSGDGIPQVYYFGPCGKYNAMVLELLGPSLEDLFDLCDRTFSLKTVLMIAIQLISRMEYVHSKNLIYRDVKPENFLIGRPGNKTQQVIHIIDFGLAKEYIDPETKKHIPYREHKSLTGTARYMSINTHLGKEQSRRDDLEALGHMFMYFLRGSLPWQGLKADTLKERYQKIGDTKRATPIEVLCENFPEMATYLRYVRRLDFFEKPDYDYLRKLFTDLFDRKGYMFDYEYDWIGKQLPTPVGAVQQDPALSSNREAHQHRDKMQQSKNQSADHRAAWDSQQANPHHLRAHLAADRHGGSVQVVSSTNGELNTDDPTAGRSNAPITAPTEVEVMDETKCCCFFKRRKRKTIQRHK
T8 sequence (P54756 25-1037): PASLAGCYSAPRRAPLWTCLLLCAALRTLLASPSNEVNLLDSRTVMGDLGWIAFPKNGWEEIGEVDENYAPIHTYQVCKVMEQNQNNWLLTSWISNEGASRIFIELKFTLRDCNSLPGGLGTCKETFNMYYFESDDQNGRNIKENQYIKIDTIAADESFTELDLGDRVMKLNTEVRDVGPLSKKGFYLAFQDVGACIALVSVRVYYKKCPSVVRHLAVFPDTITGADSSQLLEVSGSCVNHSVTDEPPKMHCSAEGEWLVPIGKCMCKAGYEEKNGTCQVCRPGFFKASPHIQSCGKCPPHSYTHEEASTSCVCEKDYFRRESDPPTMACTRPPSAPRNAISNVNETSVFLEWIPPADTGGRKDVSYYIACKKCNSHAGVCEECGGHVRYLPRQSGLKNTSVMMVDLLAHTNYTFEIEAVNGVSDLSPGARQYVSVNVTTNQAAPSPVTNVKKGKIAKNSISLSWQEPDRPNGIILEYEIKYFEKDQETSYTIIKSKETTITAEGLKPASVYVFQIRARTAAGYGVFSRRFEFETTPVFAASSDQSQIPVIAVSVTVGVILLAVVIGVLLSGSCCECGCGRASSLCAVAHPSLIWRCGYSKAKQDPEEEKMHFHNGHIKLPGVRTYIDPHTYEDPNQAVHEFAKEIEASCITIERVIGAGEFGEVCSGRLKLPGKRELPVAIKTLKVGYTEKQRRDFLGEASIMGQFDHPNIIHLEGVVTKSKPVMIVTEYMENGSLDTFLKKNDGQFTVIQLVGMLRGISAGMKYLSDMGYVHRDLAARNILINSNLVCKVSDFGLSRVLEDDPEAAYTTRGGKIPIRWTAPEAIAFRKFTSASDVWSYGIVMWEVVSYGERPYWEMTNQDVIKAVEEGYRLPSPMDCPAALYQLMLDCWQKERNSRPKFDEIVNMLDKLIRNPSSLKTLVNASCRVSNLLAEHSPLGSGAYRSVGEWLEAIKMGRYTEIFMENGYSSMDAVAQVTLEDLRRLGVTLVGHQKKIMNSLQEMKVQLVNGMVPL
T22 sequence (P61075 whole entry): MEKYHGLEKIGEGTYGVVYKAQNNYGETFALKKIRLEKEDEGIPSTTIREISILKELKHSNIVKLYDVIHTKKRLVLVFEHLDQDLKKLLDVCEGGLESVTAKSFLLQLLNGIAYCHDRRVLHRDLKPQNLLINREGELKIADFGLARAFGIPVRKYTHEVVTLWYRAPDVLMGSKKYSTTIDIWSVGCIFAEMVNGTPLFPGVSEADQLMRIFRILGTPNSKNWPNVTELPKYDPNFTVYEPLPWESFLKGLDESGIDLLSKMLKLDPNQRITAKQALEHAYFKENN
T30 sequence (Q86Y07 whole entry): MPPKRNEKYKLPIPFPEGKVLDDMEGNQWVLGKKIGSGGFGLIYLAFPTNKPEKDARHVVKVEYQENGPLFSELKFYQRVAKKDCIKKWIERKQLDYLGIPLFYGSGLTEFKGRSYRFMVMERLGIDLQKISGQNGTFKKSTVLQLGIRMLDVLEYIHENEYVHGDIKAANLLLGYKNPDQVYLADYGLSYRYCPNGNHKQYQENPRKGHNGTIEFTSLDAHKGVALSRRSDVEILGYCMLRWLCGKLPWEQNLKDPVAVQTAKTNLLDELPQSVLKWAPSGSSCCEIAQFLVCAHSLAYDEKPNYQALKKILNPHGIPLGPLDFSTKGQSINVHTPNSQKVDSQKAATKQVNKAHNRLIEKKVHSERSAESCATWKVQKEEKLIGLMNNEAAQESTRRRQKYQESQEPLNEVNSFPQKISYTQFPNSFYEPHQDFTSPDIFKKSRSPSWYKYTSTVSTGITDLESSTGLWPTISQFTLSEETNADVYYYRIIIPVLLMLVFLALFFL
T26 sequence (O75116 whole entry): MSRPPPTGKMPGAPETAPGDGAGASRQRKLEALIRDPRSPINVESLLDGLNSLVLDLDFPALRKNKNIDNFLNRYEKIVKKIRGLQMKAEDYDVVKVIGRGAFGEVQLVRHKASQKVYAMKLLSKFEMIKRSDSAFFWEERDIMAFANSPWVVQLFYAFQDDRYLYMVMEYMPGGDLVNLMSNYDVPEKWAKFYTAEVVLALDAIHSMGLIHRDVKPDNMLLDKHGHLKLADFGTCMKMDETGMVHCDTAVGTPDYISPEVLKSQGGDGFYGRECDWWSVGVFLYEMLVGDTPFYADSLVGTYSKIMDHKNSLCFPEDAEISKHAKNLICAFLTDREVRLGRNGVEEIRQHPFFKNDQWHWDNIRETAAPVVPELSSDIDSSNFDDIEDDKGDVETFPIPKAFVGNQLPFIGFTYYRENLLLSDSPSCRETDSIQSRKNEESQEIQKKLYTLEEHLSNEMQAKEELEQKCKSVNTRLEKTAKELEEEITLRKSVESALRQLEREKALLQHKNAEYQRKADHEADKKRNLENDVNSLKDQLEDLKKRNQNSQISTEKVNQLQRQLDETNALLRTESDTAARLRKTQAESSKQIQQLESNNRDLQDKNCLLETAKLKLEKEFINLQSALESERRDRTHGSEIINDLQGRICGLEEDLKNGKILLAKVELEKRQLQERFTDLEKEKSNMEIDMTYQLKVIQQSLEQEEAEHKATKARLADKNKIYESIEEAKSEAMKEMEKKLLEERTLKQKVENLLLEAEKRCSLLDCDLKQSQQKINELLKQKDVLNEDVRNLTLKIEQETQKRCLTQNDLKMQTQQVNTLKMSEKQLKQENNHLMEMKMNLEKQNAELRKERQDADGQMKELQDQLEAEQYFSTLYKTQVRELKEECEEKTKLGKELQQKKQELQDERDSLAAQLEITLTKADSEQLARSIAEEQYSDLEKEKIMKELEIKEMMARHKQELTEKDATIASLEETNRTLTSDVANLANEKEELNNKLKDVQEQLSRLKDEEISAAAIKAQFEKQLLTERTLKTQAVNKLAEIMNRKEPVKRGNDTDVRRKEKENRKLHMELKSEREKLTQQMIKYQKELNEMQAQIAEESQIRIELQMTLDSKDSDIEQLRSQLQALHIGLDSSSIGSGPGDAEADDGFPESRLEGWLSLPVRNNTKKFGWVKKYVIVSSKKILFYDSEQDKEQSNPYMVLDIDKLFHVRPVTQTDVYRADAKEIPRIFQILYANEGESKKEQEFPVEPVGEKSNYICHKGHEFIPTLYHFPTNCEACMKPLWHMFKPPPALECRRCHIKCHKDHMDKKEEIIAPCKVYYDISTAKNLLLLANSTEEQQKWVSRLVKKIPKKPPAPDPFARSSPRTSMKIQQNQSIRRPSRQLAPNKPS
T14 sequence (P45984 whole entry): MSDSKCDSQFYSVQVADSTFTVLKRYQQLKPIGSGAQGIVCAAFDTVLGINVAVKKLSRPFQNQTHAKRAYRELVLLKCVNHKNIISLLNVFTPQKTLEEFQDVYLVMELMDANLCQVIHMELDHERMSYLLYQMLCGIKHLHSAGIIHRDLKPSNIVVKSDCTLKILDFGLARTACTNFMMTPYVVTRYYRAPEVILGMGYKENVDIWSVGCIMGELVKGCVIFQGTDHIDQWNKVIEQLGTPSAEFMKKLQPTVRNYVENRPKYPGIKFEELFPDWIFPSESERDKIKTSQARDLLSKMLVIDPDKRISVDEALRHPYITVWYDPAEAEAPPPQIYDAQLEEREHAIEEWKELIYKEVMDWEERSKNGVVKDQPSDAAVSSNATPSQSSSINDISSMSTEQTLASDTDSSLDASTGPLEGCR

Nc1ccc(N=Nc2ccccc2)c(N)n1 [phenazopyridine, 2,6-diamino-3-(phenylazo)pyridine]
kinase inhibition [1]: 96
kinase inhibition [2]: 67
kinase inhibition [3]: 48
kinase inhibition ([4]; CSNK1G3, 10 µM): 100
remaining binding at 10 µM ([4]; Casein kinase 1 isoform γ 3 (CK1), read-out: Kinome scan (% of control at 10 µM)): 44%
kinase inhibition [5]: 100
kinase inhibition [6]: 73
kinase inhibition [7]: 81
kinase inhibition [8]: 97
kinase inhibition [9]: 64
kinase inhibition [10]: 95
kinase inhibition [11]: 91
remaining binding (% of control) [12]: 100
kinase inhibition [13]: 100
kinase inhibition [14]: 94
percent of control binding remaining ([15]; KIT, 10 µM): 41
remaining binding at 10 µM ([15]; c-KIT wt, read-out: Kinome scan (% of control at 10 µM)): 41%
kinase inhibition [16]: 100
kinase inhibition [17]: 54
kinase inhibition [18]: 83
kinase inhibition [19]: 100
kinase inhibition [20]: 100
kinase inhibition [21]: 100
kinase inhibition [22]: 89
kinase bound, % of DMSO control [23]: 100
% of control (remaining binding) [24]: 92
kinase inhibition [25]: 100
kinase inhibition [26]: 89
kinase inhibition [27]: 87
kinase inhibition [28]: 76
kinase inhibition [29]: 81
kinase inhibition [30]: 86
Concentration [31]: 16.7 µM
